Read-outs that look alike come from different tables or passages of the source.
What was measured:
[1] = system: MCF-7 cells (negative control); assay: MCF-7 Stable Cell Line Viability (UbC HA-ER-α series); assay type: cell-based; design: Percent inhibition compared to vehicle: concentration or dose not given beside the values; conditions: for EC50: Homo sapiens, MCF7, Receptor None (MCF-7 negative control); for Percent inhibition compared to vehicle / Efficacy (Emax): Receptor None (MCF-7 negative control)
From the text: (§1) MCF-7 Mutant ER-α Stable Cell Line Generation: MCF-7 cells stably expressing wild-type or ER-α mutants were generated by subcloning ESR1 wild-type and mutant cDNAs containing an amino terminal hemagglutinin tag into pCDH-EF1-MCS-(PGK-Puro) (referred to as EF1 HA-ER-α) and pCDH-UbC-MCS-EF1-Hygro (referred to as UbC HA-ER-α) (System Biosciences). The resulting plasmids, in addition to an empty vector negative control, were subsequently cotransfected into HEK293T cells with the pPACKH1 packaging plasmid mix (System Biosciences) according to the manufacturer's protocol. Four days post transfection lentiviral particles were purified from the cell medium, tiered and stored at −80° C. MCF-7 cells were transduced with the purified viral particles and stable cell lines were selected by growth in RPMI containing 10% FBS plus 1 μG/mL puromycin or 200 μG/mL hygromycin for pCDH-EF1-MCS-(PGK-Puro) and pCDH-UbC-MCS-EF1-Hygro, respectively.
(§2) MCF-7 Stable Cell Line Viability: MCF-7 cells were enumerated with a hemacytometer adjusted to a concentration of 40,000 cells per mL in Phenol Free RPMI containing 10% CSS with NEAA and Sodium Pyruvate. 16 microliters of the cell suspension was added to each well of a 384 well tissue culture treated white clear bottom polystyrene plate (Corning) using a Matrix 16 channel electronic pipette. The cells were incubated overnight to allow the cells to adhere. The following day, 16 microliters of Phenol Free RPMI containing 10% CSS with NEAA and Sodium Pyruvate was added to the wells of one plate, followed by 16 μL of CellTiter-Glo (Promega, Madison Wis.) luminescent cell viability reagent using a Matrix 16 channel electronic pipette. […] The “average” of the relative luminescence units (RLUs) of the wells are considered to be the baseline value at time=zero. In addition, a 10 point, 1:5 serial dilution in DMSO (Sigma-Aldrich) was performed using Matrix 12 channel electronic pipette, including DMSO only as […]. 4 μL of each dilution was then added to 196 μL of RPMI containing 10% CSS with NEAA and Sodium Pyruvate. 16 μL of medium containing compound was added to the cells at a final concentration ranging from 10 μM to 5 pM. Compound dilution in media and subsequent addition to cells were carried out using Matrix 12 channel electronic pipettes. After 5 day compound exposure, 16 μL of CellTiter-Glo (Promega, Madison Wis.) luminescent cell viability reagent was added to the cells using a Matrix 16 channel electronic pipette. CellTiter-Glo added to 32 μL of medium without cells was used to obtain a background value. […] The relative luminescence units (RLUs) of each well were measured, and relative proliferation (fold) of each sample was determined as follows: (RLU sample−RLU background)/(RLU at T=0)=relative proliferation
(§3) The UbC promoter is reported by the manufacturer (System Biosciences) to express low to moderate RNA levels while the EF1 promoter expresses high levels (System Biosciences).

[2] = system: MCF-7 cells stably expressing UbC HA-ER-α wild-type; assay: as above; assay type: cell-based; design: Percent inhibition compared to vehicle: concentration or dose not given beside the values; conditions: for EC50: Homo sapiens, MCF7, UbC HA-ER-α Wild-type, read-out: Potency (EC50; nM); for Percent inhibition compared to vehicle / Efficacy (Emax): UbC HA-ER-α Wild-type; for Percent inhibition compared to vehicle: 5-Day Incubation; for Efficacy (Emax): Day 5 relative to Day 0
From the text: as §1, §2, §3

[3] = system: MCF-7 cells stably expressing EF1 HA-ER-α wild-type; assay: MCF-7 Stable Cell Line Viability (EF1 HA-ER-α series); assay type: cell-based; design: Percent inhibition compared to vehicle: concentration or dose not given beside the values; conditions: for Percent inhibition compared to vehicle / Efficacy (Emax): EF1 HA-ER-α Wild-type; for Percent inhibition compared to vehicle: 5-Day Incubation; for Efficacy (Emax): Day 5 relative to Day 0; for EC50: Homo sapiens, MCF7, EF1 HA-ER-α Wild-type, read-out: Potency (EC50; nM)
From the text: as §1, §2, §3

[4] = system: MCF-7 cells transduced with an empty EF1 lentiviral vector (negative control); assay: as above; assay type: cell-based; design: Percent inhibition compared to vehicle: concentration or dose not given beside the values; conditions: for EC50: Homo sapiens, MCF7, Receptor None (empty EF1 lentiviral vector), read-out: Potency (EC50; nM); for Percent inhibition compared to vehicle / Efficacy (Emax): Receptor None (empty EF1 lentiviral vector); for Percent inhibition compared to vehicle: 5-Day Incubation; for Efficacy (Emax): Day 5 relative to Day 0
From the text: as §1, §2, §3

[5] = system: MCF-7 cells stably expressing ER-α mutants; conditions: 5 day proliferation assays; depending on the mutation and assay format
Description: Potency and efficacy of ERM 1-3 were measured in vitro in ER dependent transcriptional reporter assays and viability assays of MCF-7 cells stably expressing ER-α mutants.
as §1
MCF-7 Stable Cell Line Viability: MCF-7 cells were enumerated with a hemacytometer adjusted to a concentration of 40,000 cells per mL in Phenol Free RPMI containing 10% CSS with NEAA and Sodium Pyruvate. 16 microliters of the cell suspension was added to each well of a 384 well tissue culture treated white clear bottom polystyrene plate (Corning) using a Matrix 16 channel electronic pipette. The cells were incubated overnight to allow the cells to adhere. […] The “average” of the relative luminescence units (RLUs) of the wells are considered to be the baseline value at time=zero. […] The relative luminescence units (RLUs) of each well were measured, and relative proliferation (fold) of each sample was determined as follows: (RLU sample−RLU background)/(RLU at T=0)=relative proliferation
Potency and efficacy of ERM 4-23 were measured in vitro in ER dependent transcriptional reporter assays and viability assays of MCF-7 cells stably expressing ER-α mutants.

SMILES: CC/C(=C(/c1ccc(/C=C/C(=O)O)cc1)c1ccc2[nH]ncc2c1)c1ccc(F)cc1Cl [Compound 1-3, (E)-3-(4-((E)-2-(2-chloro-4-fluorophenyl)-1-(1H-indazol-5-yl)but-1-en-1-yl)phenyl)acrylic acid]
- EC50 ([1]; Agonist Mode, −E2, read-out: Potency (EC50; nM)): 0.603 ± 0.74 nM
- EC50 ([1]; Antagonist Mode, +E2, read-out: Potency (EC50; nM)): 4.84 ± 4.42 nM
- Percent inhibition compared to vehicle ([1]; Agonist Mode, −E2, 5-Day Incubation): 30%
- Efficacy (Emax) ([1]; Agonist Mode, −E2, Day 5 relative to Day 0): 1.23 ± 0.88
- Percent inhibition compared to vehicle ([1]; Antagonist Mode, +E2, 5-Day Incubation): 70%
- Efficacy (Emax) ([1]; Antagonist Mode, +E2, Day 5 relative to Day 0): 0.97 ± 0.01
- EC50 ([2]; Agonist Mode, −E2): 0.58 ± 0.386 nM
- EC50 ([2]; Antagonist Mode, +E2): 5.5 ± 6.28 nM
- Percent inhibition compared to vehicle ([2]; Agonist Mode, −E2): 37%
- Efficacy (Emax) ([2]; Agonist Mode, −E2): 1.17 ± 0.17
- Percent inhibition compared to vehicle ([2]; Antagonist Mode, +E2): 76%
- Efficacy (Emax) ([2]; Antagonist Mode, +E2): 1.16 ± 0.03
- Percent inhibition compared to vehicle ([3]; Agonist Mode, −E2): 48%
- Efficacy (Emax) ([3]; Agonist Mode, −E2): 2.97 ± 0.50
- Percent inhibition compared to vehicle ([3]; Antagonist Mode, +E2): 59%
- Efficacy (Emax) ([3]; Antagonist Mode, +E2): 2.78 ± 0.26
- EC50 ([3]; Agonist Mode, −E2): 2.84 ± 1.36 nM
- EC50 ([3]; Antagonist Mode, +E2): 28 ± 10.3 nM
- EC50 ([4]; Agonist Mode, −E2): 0.828 ± 0.347 nM
- EC50 ([4]; Antagonist Mode, +E2): 9.27 ± 3.93 nM
- Percent inhibition compared to vehicle ([4]; Agonist Mode, −E2): 54%
- Efficacy (Emax) ([4]; Agonist Mode, −E2): 1.03 ± 0.14
- Percent inhibition compared to vehicle ([4]; Antagonist Mode, +E2): 75%
- Efficacy (Emax) ([4]; Antagonist Mode, +E2): 1.01 ± 0.12
- reduced the number of viable cells (compared to DMSO control) [5]: 44%-78%
